This passage reports Activity and IC50 results from ChEMBL document CHEMBL1148832, “Rational design, structure, and biological evaluation of cyclic peptides mimicking the vascular endothelial growth factor” (J Med Chem, 2007).

A word on the IC50: it is the concentration at which inhibition is half-maximal.

Calls of active or inactive are those of the source. No cut-off for these calls is given here. *1 amine or outer side, *2 acyl side, *3 side chain or, on linkers, in order; H or OH if unused. Where a SMILES comes first, the peptide text is derived from it. Bridges are numbered along the chain shown (N, C = ends). [ ]: non-standard residue; d: D form. X1 = O=C([C@H](Cc1cc(=O)oc2cc(O)ccc12)N[*:1])[*:2]; hPhe = N[C@@H](CCc1ccccc1)C(=O)O; β3hE = N[C@@H](CCC(=O)O)CC(=O)O

In one assay the test system is HUVEC. In words: Inhibition of VEGF165-induced cell migration in HUVEC at 100 uM after 6 hrs by wound healing assay. To be noted: Homo sapiens. The format is functional, cell-based.
Assay [1] deals with Vascular endothelial growth factor receptor 1 (Homo sapiens, UniProt P17948). As to the kind of experiment: Displacement of biotinylated VEGF165 from human recombinant VEGFR1 by chemiluminescent assay.
Chain of Vascular endothelial growth factor receptor 1 (P17948 whole entry): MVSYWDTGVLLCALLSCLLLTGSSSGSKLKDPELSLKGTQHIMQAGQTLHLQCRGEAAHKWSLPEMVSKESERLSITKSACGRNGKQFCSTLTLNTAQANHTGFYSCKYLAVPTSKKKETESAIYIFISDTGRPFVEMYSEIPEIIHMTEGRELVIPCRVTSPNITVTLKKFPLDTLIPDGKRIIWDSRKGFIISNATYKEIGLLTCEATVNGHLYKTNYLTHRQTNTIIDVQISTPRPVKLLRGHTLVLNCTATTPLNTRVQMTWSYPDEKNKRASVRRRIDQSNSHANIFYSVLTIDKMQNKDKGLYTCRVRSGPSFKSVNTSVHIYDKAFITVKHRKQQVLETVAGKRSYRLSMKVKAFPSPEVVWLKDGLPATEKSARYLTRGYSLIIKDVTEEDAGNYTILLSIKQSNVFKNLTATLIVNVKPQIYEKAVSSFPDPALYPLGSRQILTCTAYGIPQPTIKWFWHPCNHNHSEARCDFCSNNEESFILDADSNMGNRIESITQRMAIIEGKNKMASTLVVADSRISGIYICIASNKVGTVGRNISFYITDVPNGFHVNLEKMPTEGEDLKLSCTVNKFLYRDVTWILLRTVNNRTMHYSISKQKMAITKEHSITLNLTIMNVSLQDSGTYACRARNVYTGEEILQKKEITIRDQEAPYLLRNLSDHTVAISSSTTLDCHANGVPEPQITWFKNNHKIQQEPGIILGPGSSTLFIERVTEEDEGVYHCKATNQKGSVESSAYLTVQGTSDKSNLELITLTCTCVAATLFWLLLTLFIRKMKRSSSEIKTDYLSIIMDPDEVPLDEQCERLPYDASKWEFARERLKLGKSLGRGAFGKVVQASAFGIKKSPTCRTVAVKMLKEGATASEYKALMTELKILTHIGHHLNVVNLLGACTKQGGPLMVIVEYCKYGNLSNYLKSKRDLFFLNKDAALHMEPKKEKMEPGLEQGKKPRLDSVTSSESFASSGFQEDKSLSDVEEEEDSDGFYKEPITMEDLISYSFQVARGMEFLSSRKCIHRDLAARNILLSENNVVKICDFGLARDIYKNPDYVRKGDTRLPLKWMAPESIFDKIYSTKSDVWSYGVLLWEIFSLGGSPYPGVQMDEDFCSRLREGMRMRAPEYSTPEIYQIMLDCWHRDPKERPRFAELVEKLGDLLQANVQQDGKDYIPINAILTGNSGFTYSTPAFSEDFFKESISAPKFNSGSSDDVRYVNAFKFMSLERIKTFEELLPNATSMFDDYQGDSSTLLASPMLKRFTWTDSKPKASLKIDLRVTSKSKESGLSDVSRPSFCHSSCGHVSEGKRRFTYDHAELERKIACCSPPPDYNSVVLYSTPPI

On to `CC(C)C[C@@H]1NC(=O)CNC(=O)[C@H](CCC(=O)O)NC(=O)[C@H](CC(=O)O)NC(=O)[C@H](Cc2ccc(O)cc2)NC(=O)[C@H](Cc2ccc(O)cc2)NC(=O)CC[C@@H](C(N)=O)NC(=O)[C@H](CCC(=O)O)NC1=O` (YYDEGLEE-NH2; lactam N-8), for which the result in the assay on HUVEC was Active. With `CC(C)C[C@@H]1NC(=O)CNC(=O)[C@H](CCC(=O)O)NC(=O)[C@H](Cc2cc(=O)oc3cc(O)ccc23)NC(=O)[C@H](CCc2ccccc2)NC(=O)CC[C@@H](C(N)=O)NC(=O)[C@H](CCC(=O)O)NC1=O` ([hPhe][X1]EGLEE-NH2; lactam N-7), the IC50 in assay [1] came to 19.3 µM. Take `CC(C)C[C@@H]1NC(=O)CNC(=O)[C@H](CCC(=O)O)NC(=O)[C@H](Cc2cc(=O)oc3cc(O)ccc23)NC(=O)[C@H](CCc2ccccc2)NC(=O)CC[C@@H](CC(N)=O)NC(=O)[C@H](CCC(=O)O)NC1=O` ([hPhe][X1]EGLE[β3hE]-NH2; lactam N-7): in the assay with HUVEC, the outcome was Active.
